US20200131144A1, “AMINE OR (THIO)AMIDE CONTAINING LXR MODULATORS” (Phenex-FXR GmbH, priority 2017, published 2020)
pEC50: −log10 of the molar value.

How the values were obtained:
[1] = biological target: T1, GST-LXRβ ligand-binding domain (Homo sapiens, UniProt P55055, INS174Q); assay: TR-FRETβ activity assay (NCoA3 coactivator peptide recruitment); format: biochemical; settings: 1 μM 24(S)-25-epoxycholesterol as prestimulating agonist; inverse agonist unless *
T1 construct: amino acids 156-461; NP009052; made in house; host or cells: E. coli
T1 sequence (P55055 with tags, fused parts or gaps INS174Q limits assumed): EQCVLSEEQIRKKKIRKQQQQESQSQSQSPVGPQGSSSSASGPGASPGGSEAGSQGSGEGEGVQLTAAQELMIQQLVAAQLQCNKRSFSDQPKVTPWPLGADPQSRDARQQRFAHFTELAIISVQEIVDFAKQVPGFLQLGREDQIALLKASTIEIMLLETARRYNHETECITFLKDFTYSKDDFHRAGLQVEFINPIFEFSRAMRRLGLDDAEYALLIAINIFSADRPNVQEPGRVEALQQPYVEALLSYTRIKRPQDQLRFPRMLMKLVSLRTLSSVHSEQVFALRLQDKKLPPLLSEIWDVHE
Protocol: The tested compounds were usually dissolved, tested and stored as 20 mM stock solutions in DMSO. […] Sulfonyl acetic acid derivatives are shelf stable as solid at rt for long time as reported by Griesbrecht et al. (Synlett 2010:374) or Faucher et al. (J. Med. Chem. 2004; 47:18). TR-FRETβ Activity Assay Recombinant GST-LXRβ ligand-binding domain (LBD; amino acids 156-461; NP009052; SEQ ID NO:4) was expressed in E. coli and purified via gluthatione-sepharose affinity chromatography. N-terminally biotinylated NCoA3 coactivator peptide (SEQ ID NO:7) was chemically synthesized (Eurogentec). […] Finally, a detection mix was added containing anti GST-Tb cryptate (CisBio; 610SAXLB) and Streptavidin-XL665 (CisBio; 610SAXLB) as fluorescent donor and acceptor, respectively, as well as the coactivator peptide and LXRβ-LBD protein (SEQ ID NO:4). The reaction was mixed thoroughly, equilibrated for 1 h at 4° C. and vicinity of LXRβ and coactivator peptide was detected by measurement of fluorescence in a VictorX4 multiplate reader (PerkinElmer Life Science) using 340 nm as excitation and 615 and 665 nm as emission wavelengths. Assays were performed in triplicates. Final Assay Concentrations of Components: 240 mM KCl, 1 μg/μL BSA, 0.002% Triton-X-100, 125 pg/μL anti GST-Tb cryptate, 2.5 ng/μL Streptavidin-XL665, coactivator peptide (400 nM), LXRP protein ([…], i.e. 76 nM).

[2] = biological target: T2, LXRα full length (FL) (Homo sapiens, UniProt Q13133); assay: LXR Gal4 reporter transient transfection assay, mammalian two-hybrid, FL-M2H Gal4α; format: cell-based; settings: HEK293 cells; inverse agonist unless *
T2 construct: the full length (FL) proteins of LXRα (amino acids 1-447); NP005684; expressed in transfected cells; host or cells: HEK293
T2 sequence (Q13133 1-447): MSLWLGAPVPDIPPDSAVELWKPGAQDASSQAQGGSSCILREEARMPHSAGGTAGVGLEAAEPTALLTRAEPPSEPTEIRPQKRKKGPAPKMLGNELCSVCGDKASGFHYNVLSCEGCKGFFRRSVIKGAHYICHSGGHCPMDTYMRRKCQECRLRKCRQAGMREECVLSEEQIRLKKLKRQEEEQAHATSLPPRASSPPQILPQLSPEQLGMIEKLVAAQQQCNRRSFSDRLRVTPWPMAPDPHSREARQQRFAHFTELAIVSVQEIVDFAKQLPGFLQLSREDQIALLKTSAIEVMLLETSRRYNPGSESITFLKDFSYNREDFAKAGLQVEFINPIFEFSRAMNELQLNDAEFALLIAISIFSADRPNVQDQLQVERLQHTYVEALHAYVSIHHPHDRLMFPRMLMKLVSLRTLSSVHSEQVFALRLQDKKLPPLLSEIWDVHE
Protocol: (§1) The tested compounds were usually dissolved, tested and stored as 20 mM stock solutions in DMSO. Since sulfonyl acetic acid derivatives tend to decarboxylate under these conditions, these stock solutions were prepared, tested and stored as 20 mM DMSO stock solutions containing 100 mM trifluoroacetic acid (5 equivalents). Sulfonyl acetic acid derivatives are shelf stable as solid at rt for long time as reported by Griesbrecht et al. (Synlett 2010:374) or Faucher et al. (J. Med. Chem. 2004; 47:18).
(§2) LXR Gal4 Reporter Transient Transfection Assays
(§3) LXRα and LXRβ activity status was determined via detection of interaction with coactivator and corepressor proteins in mammalian two-hybrid experiments (M2H). For this, via transient transfection the full length (FL) proteins of LXRα (amino acids 1-447; NP005684; SEQ ID NO:1) or LXRβ-(amino acids 1-461; NP009052; SEQ ID NO:2) or the ligand-binding domains (LBD) of LXRα (amino acids 155-447 SEQ ID NO:3) or LXR (amino acids 156-461; SEQ ID NO:4) were expressed from pCMV-AD (Stratagene) as fusions to the transcriptional activation domain of NFkB. As cofactors, domains of either the steroid receptor coactivator 1 (SRC1; amino acids 552-887; SEQ ID NO:5) or of the corepressor NCoR (amino acids 1906-2312; NP006302; SEQ ID NO:6) were expressed as fusions to the DNA binding domain of the yeast transcription factor GAL4 (from pCMV-BD; Stratagene). Interaction was monitored via activation of a coexpressed Firefly Luciferase Reporter gene under control of a promoter containing repetitive GAL4 response elements (vector pFRLuc; Stratagene). Transfection efficiency was controlled via cotransfection of constitutively active pRL-CMV Renilla reniformis luciferase reporter (Promega). HEK293 cells were grown in minimum essential medium (MEM) with 2 mM L-glutamine and Earle's balanced salt solution supplemented with 8.3% fetal bovine serum, 0.1 mM non-essential amino acids, 1 mM sodium pyruvate, at 37° C. in 5% CO2. 3.5×10^4 cells/well were plated in 96-well cell culture plates in growth medium supplemented with 8.3% fetal bovine serum for 16-20 h to—90% confluency. For transfection, medium was taken off and LXR and cofactor expressing plasmids as well as the reporter plasmids are added in 30 μL OPTIMEM/well including polyethylene-imine (PEI) as vehicle. Typical amounts of plasmids transfected/well: pCMV-AD-LXR (5 ng), pCMV-BD-cofactor (5 ng), pFR-Luc (100 ng), pRL-CMV (0.5 ng). Compound stocks were prepared in DMSO, prediluted in MEM to a total volume of 120 μL, and added 4 h after addition of the transfection mixture (final vehicle concentration not exceeding 0.2%). Cells were incubated for additional 16 h, lysed for 10 min in 1×Passive Lysis Buffer (Promega) and Firefly and Renilla luciferase activities were measured sequentially in the same cell extract using buffers containing D-luciferine and coelenterazine, respectively. Measurements of luminescence were done in a BMG-luminometer.

[3] = biological target: T3, LXRβ full length (FL) (Homo sapiens, UniProt P55055, INS174Q); assay: LXR Gal4 reporter transient transfection assay, mammalian two-hybrid, FL-M2H Gal4β; format: cell-based; settings: HEK293 cells; inverse agonist unless *
T3 construct: the full length (FL) proteins of LXRα (amino acids 1-447); NP005684; NP009052; expressed in transfected cells; host or cells: HEK293
T3 sequence (P55055 with tags, fused parts or gaps INS174Q): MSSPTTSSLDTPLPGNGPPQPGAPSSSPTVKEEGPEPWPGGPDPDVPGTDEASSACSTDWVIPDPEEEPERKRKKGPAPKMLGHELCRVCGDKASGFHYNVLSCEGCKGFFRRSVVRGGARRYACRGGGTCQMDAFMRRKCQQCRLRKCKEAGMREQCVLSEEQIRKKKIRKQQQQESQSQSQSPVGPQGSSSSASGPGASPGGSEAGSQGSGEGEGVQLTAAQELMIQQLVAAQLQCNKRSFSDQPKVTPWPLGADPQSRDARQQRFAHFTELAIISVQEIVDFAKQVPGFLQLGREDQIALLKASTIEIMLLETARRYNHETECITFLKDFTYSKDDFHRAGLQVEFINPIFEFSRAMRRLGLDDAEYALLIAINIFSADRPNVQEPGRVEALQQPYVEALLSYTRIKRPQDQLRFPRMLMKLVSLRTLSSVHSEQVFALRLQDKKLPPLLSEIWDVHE
Protocol: as §1, §2, §3

Row | SMILES | pEC50 [1] | pEC50 [2] | pEC50 [3]
1 | Cc1ccc2ccccc2c1C(=O)N(Cc1ccc(-c2cccc(C(C)(C)CC(=O)O)c2)cc1)Cc1ccc(C(F)(F)F)o1 [27/9] | 6.00 to 7.00 | > 7.00 | > 7.00
2 | COC(C)(C(=O)O)c1cccc(-c2ccc(CN(Cc3ccc(C(F)(F)F)o3)C(=O)c3c(C)ccc4ccccc34)cc2)c1 (stereo not drawn) [27/11] | 5.00 to 6.00 | > 7.00 | > 7.00
3 | CC(C)(C(=O)O)c1cccc(-c2ccc(CN(Cc3ccc(C(F)(F)F)o3)C(=O)c3cccc4ncncc34)cc2)c1 [27/13] | 5.00 to 6.00 | 6.00 to 7.00 | > 7.00
4 | CC(C)(C(=O)O)c1cccc(-c2ccc(CN(Cc3ccc(C(F)(F)F)o3)C(=O)c3cccc4cnncc34)cc2)c1 [27/14] | 6.00 to 7.00 | 5.00 to 6.00 | 6.00 to 7.00
5 | CC(C)(C(=O)O)c1cccc(-c2ccc(CN(Cc3ccc(C(F)(F)F)o3)Cc3cccc4c3CCOC4)cc2)c1 [27/15] | 6.00 to 7.00 | > 7.00 | > 7.00
6 | CC(C)(C(=O)O)c1cccc(-c2ccc(CN(Cc3ccc(C(F)(F)F)o3)Cc3cccc4c3CCCO4)cc2)c1 [27/16] | 6.00 to 7.00 | > 7.00 | > 7.00
7 | CN(C)c1ncc(CN(Cc2ccc(-c3cccc(C(C)(C)C(=O)O)c3)cc2)Cc2ccc(C(F)(F)F)o2)c2ccccc12 [27/18] | 6.00 to 7.00 | > 7.00 | > 7.00
8 | COc1ncc(CN(Cc2ccc(-c3cccc(C(C)(C)C(=O)O)c3)cc2)Cc2ccc(C(F)(F)F)o2)c2ccccc12 [27/19] | 6.00 to 7.00 | > 7.00 | > 7.00
9 | Cc1ccc2ccc(C)c(CN(Cc3ccc(-c4cccc(C(C)(C)C(=O)O)c4)cc3)Cc3ccc(C(F)(F)F)o3)c2c1 [27/20] | 6.00 to 7.00 | > 7.00 | > 7.00
10 | Cc1ccc2c(CN(Cc3ccc(-c4cccc(C(C)(C)C(=O)O)c4)cc3)Cc3ccc(C(F)(F)F)o3)c(C)ccc2c1 [27/21] | 6.00 to 7.00 | > 7.00 | > 7.00
11 | Cc1c(CN(Cc2ccc(-c3cccc(C(C)(C)C(=O)O)c3)cc2)Cc2ccc(C(F)(F)F)o2)c2ccccc2[nH]c1=O [27/22] | 6.00 to 7.00 | 6.00 to 7.00 | > 7.00
12 | COc1ccc2c(CN(Cc3ccc(-c4cccc(C(C)(C)C(=O)O)c4)cc3)Cc3ccc(C(F)(F)F)o3)cc(C)cc2c1 [27/24] | 5.00 to 6.00 | 6.00 to 7.00 | > 7.00
13 | Cc1ccc2ccc(C(N)=O)cc2c1CN(Cc1ccc(-c2cccc(C(C)(C)C(=O)O)c2)cc1)Cc1ccc(C(F)(F)F)o1 [27/25] | 5.00 to 6.00 | 6.00 to 7.00 | > 7.00
14 | Cc1ccc2ccc(C#N)cc2c1CN(Cc1ccc(-c2cccc(C(C)(C)C(=O)O)c2)cc1)Cc1ccc(C(F)(F)F)o1 [27/27] | 6.00 to 7.00 | > 7.00 | > 7.00
15 | Cc1ccc2ccccc2c1C(=O)N(CCc1cccc(Br)c1)Cc1ccc(-c2cccc(C(C)(C)C(=O)O)c2)cc1 [27/30] | 5.00 to 6.00 | 6.00 to 7.00 | > 7.00
16 | CC(C)(C(=O)O)c1cccc(-c2ccc(CN(Cc3ccc(C(F)(F)F)o3)C(=O)c3c4ccccc4nc4ccccc34)cc2)c1 [27/31] | > 7.00 | > 7.00 | > 7.00
17 | CCc1cc(C)c(CN(Cc2ccc(-c3cccc(C(C)(C)C(=O)O)c3)cc2)Cc2ccc(C(F)(F)F)o2)c(C)c1 [27/32] | > 7.00 | > 7.00 | > 7.00
18 | Cc1cc(C)c(CN(Cc2ccc(-c3cccc(C(C)(C)C(=O)O)c3)cc2)Cc2ccc(C(F)(F)F)o2)c2c1CCC2 [27/33] | 6.00 to 7.00 | > 7.00 | > 7.00
19 | Cc1cc(C)c(CN(Cc2ccc(-c3cccc(S(=O)(=O)CC(=O)O)c3)cc2)Cc2ccc(C(F)(F)F)o2)c(C)c1C [27/34] | 5.00 to 6.00 | 5.00 to 6.00 | 6.00 to 7.00
20 | CCc1cc(C)cc(C)c1CN(Cc1ccc(-c2cccc(S(=O)(=O)CC(=O)O)c2)cc1)Cc1ccc(C(F)(F)F)o1 [27/35] | 5.00 to 6.00 | 5.00 to 6.00 | 6.00 to 7.00
